Source: patent US6812036B2 (priority 2000, dated 2004)

Tested on: Antibody #1
Assay type: binding, mice

Compound: CC(=O)OC[C@]12[C@H](O)C(=O)C(C)=C[C@H]1O[C@@H]1[C@H](O)C[C@@]2(C)[C@]12CO2 [15-acetyl-deoxynivalenol]
- cross-reactivity: 358%

Compound: CC(=O)OC[C@]12C[C@H](OC(=O)CC(C)C)C(C)=C[C@H]1O[C@@H]1[C@H](O)[C@@H](O)[C@@]2(C)[C@]12CO2 [HT-2 toxin]
- cross-reactivity: 9%
